The text below walks through data of patent publication US11168073B2, “3,3-difluoroallylamines or salts thereof and pharmaceutical compositions comprising the same” (YUHAN CORPORATION, priority 2018, dated 2021).

Molecules are shown by their SMILES. Counter-ions that a name gives are not always drawn. Like-named read-outs stand apart in the source and are kept apart here.

Usually IC50 stands for the concentration needed to halve the response being measured.

Holding throughout (format): biochemical
One experiment deals with T1, recombinant human VAP-1 (Homo sapiens, UniProt Q16853).
T1 construct: purchased R&D systems
T1 sequence (Q16853 1-763): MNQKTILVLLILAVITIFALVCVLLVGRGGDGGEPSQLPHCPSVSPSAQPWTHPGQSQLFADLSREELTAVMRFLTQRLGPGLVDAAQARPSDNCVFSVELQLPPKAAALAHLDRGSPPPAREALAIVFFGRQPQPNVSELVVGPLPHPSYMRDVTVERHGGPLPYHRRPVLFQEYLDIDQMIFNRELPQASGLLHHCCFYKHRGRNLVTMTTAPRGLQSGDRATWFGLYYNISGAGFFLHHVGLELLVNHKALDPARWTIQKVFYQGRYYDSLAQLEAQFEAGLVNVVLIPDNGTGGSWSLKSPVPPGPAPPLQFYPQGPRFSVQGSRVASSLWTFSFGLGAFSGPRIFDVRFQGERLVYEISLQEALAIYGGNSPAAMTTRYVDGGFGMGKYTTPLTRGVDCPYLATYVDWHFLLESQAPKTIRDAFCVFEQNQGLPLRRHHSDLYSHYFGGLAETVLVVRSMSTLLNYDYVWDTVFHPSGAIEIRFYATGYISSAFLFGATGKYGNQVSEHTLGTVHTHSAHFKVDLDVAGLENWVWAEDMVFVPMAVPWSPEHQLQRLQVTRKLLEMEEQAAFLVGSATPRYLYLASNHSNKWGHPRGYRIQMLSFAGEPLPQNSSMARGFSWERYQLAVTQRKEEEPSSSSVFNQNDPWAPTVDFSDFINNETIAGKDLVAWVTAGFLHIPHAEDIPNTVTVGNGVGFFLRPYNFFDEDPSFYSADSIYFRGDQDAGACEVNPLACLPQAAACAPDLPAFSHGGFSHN
As to the kind of experiment: Activity evaluation on recombinant human VAP-1 (Amplex Red/HRP-coupled hydrogen peroxide assay, benzylamine substrate). As to conditions: read-out: Inhibitory Activity (IC50, nM) human VAP-1. An outline of the steps: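 Recombinant human VAP-1 in 50 mM sodium phosphate pH 7.4 preincubated 30 min at 37 °C with compound (8-point 1:3 series, <1% DMSO), then 1 mM benzylamine, 200 uM Amplex Red, 1 U/mL HRP added. H2O2-derived resorufin fluorescence (ex 544/em 590) followed 1–2 h; IC50 from four-parameter fit of rate inhibition.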

Experiment [1] concerns the target T2, recombinant human MAO-A (monoamine oxidase-A) (Homo sapiens, UniProt P21397).
T2 construct: purchased Sigma-Aldrich
T2 sequence (P21397 1-527): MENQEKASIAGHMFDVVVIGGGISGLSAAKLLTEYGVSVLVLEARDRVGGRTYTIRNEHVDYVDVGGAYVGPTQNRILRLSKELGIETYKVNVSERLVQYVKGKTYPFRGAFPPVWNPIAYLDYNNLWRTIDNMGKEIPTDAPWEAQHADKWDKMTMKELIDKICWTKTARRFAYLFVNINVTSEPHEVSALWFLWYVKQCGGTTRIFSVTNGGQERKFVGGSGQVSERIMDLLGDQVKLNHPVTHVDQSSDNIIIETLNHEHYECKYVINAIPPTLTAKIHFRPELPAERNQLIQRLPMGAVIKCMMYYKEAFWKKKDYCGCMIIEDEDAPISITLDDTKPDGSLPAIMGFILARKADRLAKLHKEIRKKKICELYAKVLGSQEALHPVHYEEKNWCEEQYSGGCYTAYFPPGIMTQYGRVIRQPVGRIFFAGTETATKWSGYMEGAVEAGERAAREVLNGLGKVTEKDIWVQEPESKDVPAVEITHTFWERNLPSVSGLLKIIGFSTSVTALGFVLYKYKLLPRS
As to the kind of experiment: Activity evaluation on recombinant human MAO-A (Amplex Red/HRP-coupled assay, 0.5 mM tyramine substrate). As to conditions: read-out: Inhibitory Activity (IC50, nM) MAO-A. The gist of the method:
(§1)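 Enzyme was preincubated with compounds (8-point 1:3 series, final DMSO <1%) 30 min at 37 °C in 50 mM sodium phosphate pH 7.4, then given 200 uM Amplex Red and 1 U/mL HRP with substrate. H2O2-derived resorufin fluorescence (ex 544/em 590 nm) was followed over 1–2 h; IC50 came from 4-parameter logistic fits of signal-rate inhibition versus DMSO control.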

The target of experiment [2] is T3, recombinant human MAO-B (monoamine oxidase-B) (Homo sapiens, UniProt P27338).
T3 construct: purchased Sigma-Aldrich
T3 sequence (P27338 1-520): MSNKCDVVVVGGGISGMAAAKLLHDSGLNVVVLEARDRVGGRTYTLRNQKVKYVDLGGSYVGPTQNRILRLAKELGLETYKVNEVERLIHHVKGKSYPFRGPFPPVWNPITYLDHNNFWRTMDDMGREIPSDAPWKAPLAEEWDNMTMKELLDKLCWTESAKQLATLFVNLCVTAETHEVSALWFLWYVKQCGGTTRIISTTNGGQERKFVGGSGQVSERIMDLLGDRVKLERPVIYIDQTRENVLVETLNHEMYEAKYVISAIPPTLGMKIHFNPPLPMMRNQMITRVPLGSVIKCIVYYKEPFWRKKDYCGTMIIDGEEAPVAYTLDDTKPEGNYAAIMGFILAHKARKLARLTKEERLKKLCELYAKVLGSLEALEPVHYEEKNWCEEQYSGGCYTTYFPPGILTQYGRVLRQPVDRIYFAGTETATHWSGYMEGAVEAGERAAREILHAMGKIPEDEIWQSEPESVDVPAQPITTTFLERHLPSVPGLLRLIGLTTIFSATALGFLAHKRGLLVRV
Nature of the experiment: Activity evaluation on recombinant human MAO-B (Amplex Red/HRP-coupled assay, 1 mM benzylamine substrate). As to conditions: read-out: Inhibitory Activity (IC50, nM) MAO-B. The gist of the method: as §1

Experiment [3] addresses T4, recombinant human DAO (diamine oxidase) (Homo sapiens, UniProt P19801).
T4 construct: purchased R&D systems
T4 sequence (P19801 20-751): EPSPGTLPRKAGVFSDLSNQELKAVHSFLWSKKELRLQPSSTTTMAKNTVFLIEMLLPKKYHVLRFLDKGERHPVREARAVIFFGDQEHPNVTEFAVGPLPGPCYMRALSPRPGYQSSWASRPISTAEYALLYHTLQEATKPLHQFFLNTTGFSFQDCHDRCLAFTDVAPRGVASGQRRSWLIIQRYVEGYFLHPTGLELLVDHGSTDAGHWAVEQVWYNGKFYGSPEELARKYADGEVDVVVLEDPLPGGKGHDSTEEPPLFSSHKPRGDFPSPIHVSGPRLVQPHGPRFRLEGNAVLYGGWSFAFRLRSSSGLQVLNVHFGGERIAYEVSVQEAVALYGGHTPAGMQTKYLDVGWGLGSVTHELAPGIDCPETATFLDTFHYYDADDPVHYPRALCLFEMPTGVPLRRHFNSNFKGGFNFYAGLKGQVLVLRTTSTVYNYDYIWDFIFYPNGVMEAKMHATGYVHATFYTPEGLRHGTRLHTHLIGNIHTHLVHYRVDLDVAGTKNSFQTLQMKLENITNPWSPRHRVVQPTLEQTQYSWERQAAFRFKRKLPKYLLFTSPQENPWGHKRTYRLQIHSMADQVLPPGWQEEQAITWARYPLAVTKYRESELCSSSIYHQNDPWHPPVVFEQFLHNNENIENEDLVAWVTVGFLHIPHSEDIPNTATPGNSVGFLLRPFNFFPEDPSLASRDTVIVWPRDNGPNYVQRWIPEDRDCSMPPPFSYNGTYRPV
As to the kind of experiment: Activity evaluation on recombinant human DAO (Amplex Red/HRP-coupled assay, 1 mM putrescine substrate). The following applies: read-out: Inhibitory Activity (IC50, nM) DAO. An outline of the steps:
as §1

[4] abbreviates: recombinant human VAP-1, benzylamine substrate.
The mark [5] stands for this setting: recombinant human VAP-1, 30 min preincubation at 37° C., 1 mM benzylamine.

Consider `NCC(Cn1ncn(Cc2ccc(-c3ccc4c(c3)OCO4)cc2)c1=O)=C(F)F` [Example 268, 2-[2-(aminomethyl)-3,3-difluoro-allyl]-4-[[4-(1,3-benzodioxol-5-yl)phenyl]methyl]-1,2,4-triazol-3-one Trifluoroacetate], for which the 50% inhibitory concentration (IC50) at recombinant human VAP-1 (setting [4]) was 2.1 nM; in experiment [1] (0.5 mM tyramine substrate), over 100000 nM; in experiment [2] (1 mM benzylamine substrate), 1870 nM; in experiment [3] (1 mM putrescine substrate) it was over 100000 nM.

For `CN(C)c1ccc(-c2cc(F)c(Cn3cnn(CC(CN)=C(F)F)c3=O)s2)cn1` [Example 303, 2-(2-(aminomethyl)-3,3-difluoroallyl)-4-((5-(6-(dimethylamino)pyridin-3-yl)-3-fluorothiophen-2-yl)methyl)-2,4-dihydro-3H-1,2,4-triazol-3-one trifluoroacetate], the IC50 was 0.8 nM at recombinant human VAP-1 (setting [4]), over 100000 nM in experiment [1] (0.5 mM tyramine substrate), over 100000 nM in experiment [2] (1 mM benzylamine substrate) and over 100000 nM in experiment [3] (1 mM putrescine substrate).

In the case of `Cc1cc(-c2csc(Cn3cnn(CC(CN)=C(F)F)c3=O)c2)cc2c1NC(=O)CC2` [Example 151, 6-[5-[[1-[2-(aminomethyl)-3,3-difluoro-allyl]-5-oxo-1,2,4-triazol-4-yl]methyl]-3-thienyl]-8-methyl-3,4-dihydro-1H-quinolin-2-one Trifluoroacetate], the IC50 on recombinant human VAP-1 (setting [5]) was 0.3 nM; in experiment [1] (0.5 mM tyramine), over 100000 nM; in experiment [2] (1 mM benzylamine), 26100 nM; in experiment [3] (1 mM putrescine), 6600 nM.

Consider `CN1C(=O)COc2cc(-c3ccc(Cn4cnn(CC(CN)=C(F)F)c4=O)s3)ccc21` [Example 144, 7-[5-[[1-[2-(aminomethyl)-3,3-difluoro-allyl]-5-oxo-1,2,4-triazol-4-yl]methyl]-2-thienyl]-4-methyl-1,4-benzoxazin-3-one Trifluoroacetate], for which the IC50 on recombinant human VAP-1 (setting [5]) was 0.7 nM; in experiment [1] (0.5 mM tyramine), over 100000 nM; in experiment [2] (1 mM benzylamine), over 100000 nM; in experiment [3] (1 mM putrescine), over 10000 nM.

For the molecule `NCC(Cn1ncn(Cc2sc(-c3ccc(N4CCNCC4)cc3)cc2F)c1=O)=C(F)F` [Example 298, 2-[2-(aminomethyl)-3,3-difluoro-allyl]-4-[[3-fluoro-5-(4-piperazin-1-ylphenyl)-2-thienyl]methyl]-1,2,4-triazol-3-one ditrifluoroacetate], the IC50 at recombinant human VAP-1 (setting [4]) is 12 nM; in experiment [1] (0.5 mM tyramine substrate), over 100000 nM; in experiment [2] (1 mM benzylamine substrate) it was over 100000 nM; in experiment [3] (1 mM putrescine substrate), 0.2 nM.

On to `CCn1cc(-c2cccc(-n3cnn(CC(CN)=C(F)F)c3=O)c2C)cn1` [Example 260, 2-[2-(aminomethyl)-3,3-difluoro-allyl]-4-[3-(1-ethylpyrazol-4-yl)-2-methyl-phenyl]-1,2,4-triazol-3-one Trifluoroacetate], for which the IC50 was 3.7 nM at recombinant human VAP-1 (setting [4]), over 100000 nM in experiment [1] (0.5 mM tyramine substrate), over 100000 nM in experiment [2] (1 mM benzylamine substrate) and over 100000 nM in experiment [3] (1 mM putrescine substrate).

As for `NCC(Cn1ncn(-c2ccnc(-c3ccc4c(c3)OCO4)c2)c1=O)=C(F)F` [Example 64, 2-[2-(aminomethyl)-3,3-difluoro-allyl]-4-[2-(1,3-benzodioxol-5-yl)-4-pyridyl]-1,2,4-triazol-3-one Trifluoroacetate], the half-maximal inhibitory concentration (IC50) at recombinant human VAP-1 (setting [5]) was 0.4 nM; in experiment [1] (0.5 mM tyramine), over 100000 nM; in experiment [2] (1 mM benzylamine), 480 nM; in experiment [3] (1 mM putrescine) it was 270 nM.

Turning to `Cn1cc(-c2ccc(Cn3cnn(CC(CN)=C(F)F)c3=O)s2)cn1` [Example 296, 2-[2-(aminomethyl)-3,3-difluoro-allyl]-4-[[5-(1-methylpyrazol-4-yl)-2-thienyl]methyl]-1,2,4-triazol-3-one Trifluoroacetate], the IC50 at recombinant human VAP-1 (setting [4]) was 1 nM; in experiment [1] (0.5 mM tyramine substrate) it was over 100000 nM; in experiment [2] (1 mM benzylamine substrate) it was over 100000 nM; in experiment [3] (1 mM putrescine substrate), over 100000 nM.

Consider `NCC(Cn1ncn(Cc2ccc(C#Cc3cnc4c(c3)NCCO4)s2)c1=O)=C(F)F` [Example 166, 2-[2-(aminomethyl)-3,3-difluoro-allyl]-4-[[5-[2-(2,3-dihydro-1H-pyrido[2,3-b][1,4]oxazin-7-yl)ethynyl]-2-thienyl]methyl]-1,2,4-triazol-3-one Ditrifluoroacetate], for which the IC50 at recombinant human VAP-1 (setting [5]) is 0.9 nM; in experiment [1] (0.5 mM tyramine), over 10000 nM; in experiment [2] (1 mM benzylamine), over 10000 nM; in experiment [3] (1 mM putrescine) it was over 10000 nM.

With `NCC(Cn1ncn(Cc2cc3cc(-c4ccc(N5CCNCC5)cc4)ccc3s2)c1=O)=C(F)F` [Example 206, 2-[2-(aminomethyl)-3,3-difluoro-allyl]-4-[[5-(4-piperazin-1-ylphenyl)benzothiophen-2-yl]methyl]-1,2,4-triazol-3-one Ditrifluoroacetate], the IC50 is 2.3 nM at recombinant human VAP-1 (setting [4]), over 100000 nM in experiment [1] (0.5 mM tyramine substrate), 14600 nM in experiment [2] (1 mM benzylamine substrate) and 639 nM in experiment [3] (1 mM putrescine substrate).

As to `NCC(Cn1ncn(Cc2ccc(-c3cc(F)c4[nH]c(=O)ccc4c3)s2)c1=O)=C(F)F` [Example 137, 6-[5-[[1-[2-(aminomethyl)-3,3-difluoro-allyl]-5-oxo-1,2,4-triazol-4-yl]methyl]-2-thienyl]-8-fluoro-1H-quinolin-2-one Trifluoroacetate], the IC50 was 0.3 nM on recombinant human VAP-1 (setting [5]), over 100000 nM in experiment [1] (0.5 mM tyramine), over 100000 nM in experiment [2] (1 mM benzylamine) and over 100000 nM in experiment [3] (1 mM putrescine).
